Laboratory results: ChEMBL document CHEMBL3046032, “Synthesis and biological evaluation of novel AM80 derivatives as antileukemic agents” (Med Chem Res, 2013)

Legend:
Assay type in all cases: functional, cell-based
HL-60 = experiment: Cytotoxicity against Homo sapiens (human) HL60 cells assessed as growth inhibition after 48 hr by MTT assay; details: HL-60, 48 h
K562 = experiment: Cytotoxicity against Homo sapiens (human) K562 cells assessed as growth inhibition after 48 hr by MTT assay; details: K562, 48 h
NB-4 = experiment: Cytotoxicity against Homo sapiens (human) NB4 cells assessed as growth inhibition after 48 hr by MTT assay; details: NB-4, 48 h

Structure (SMILES) | IC50 (HL-60) [µM] | IC50 (K562) [µM] | IC50 (NB-4) [µM]
C=C(c1ccc(C(=O)NCCOC(=O)c2ccc(C(=O)Nc3ccc4c(c3)C(C)(C)CCC4(C)C)cc2)cc1)c1cc2c(cc1C)C(C)(C)CCC2(C)C | 504 | > 1000 | > 1000
CCCC(=O)OCCOC(=O)c1ccc(C(=O)Nc2ccc3c(c2)C(C)(C)CCC3(C)C)cc1 | 6.29 | 18.6 | 11
CCCC(=O)OCCCOC(=O)c1ccc(C(=O)Nc2ccc3c(c2)C(C)(C)CCC3(C)C)cc1 | 2.99 | 4.57 | 5.75
CCCC(=O)OCCCCOC(=O)c1ccc(C(=O)Nc2ccc3c(c2)C(C)(C)CCC3(C)C)cc1 | 7.32 | 92.6 | 23.2
CCCC(CCC)C(=O)OCCOC(=O)c1ccc(C(=O)Nc2ccc3c(c2)C(C)(C)CCC3(C)C)cc1 | 256 | 664 | > 1000
CCCC(CCC)C(=O)OCCCOC(=O)c1ccc(C(=O)Nc2ccc3c(c2)C(C)(C)CCC3(C)C)cc1 | 835 | > 1000 | > 1000
CCCC(CCC)C(=O)OCCCCOC(=O)c1ccc(C(=O)Nc2ccc3c(c2)C(C)(C)CCC3(C)C)cc1 | 914 | > 1000 | > 1000
CCCC(=O)NCCNC(=O)c1ccc(C(=O)Nc2ccc3c(c2)C(C)(C)CCC3(C)C)cc1 | 5.61 | 7.98 | 3.26
CCCC(CCC)C(=O)NCCNC(=O)c1ccc(C(=O)Nc2ccc3c(c2)C(C)(C)CCC3(C)C)cc1 | 12.4 | 83.7 | 5.69
CCCC(=O)OCCNC(=O)c1ccc(C(=O)Nc2ccc3c(c2)C(C)(C)CCC3(C)C)cc1 | 36.8 | 25.4 | 213
CCCC(CCC)C(=O)OCCNC(=O)c1ccc(C(=O)Nc2ccc3c(c2)C(C)(C)CCC3(C)C)cc1 | > 1000 | > 1000 | > 1000
Cc1cc2c(cc1C(=O)c1ccc(C(=O)OCCOC(=O)c3ccc(C(=O)Nc4ccc5c(c4)C(C)(C)CCC5(C)C)cc3)cc1)C(C)(C)CCC2(C)C | 6.83 | 39.9 | 67
Cc1cc2c(cc1C(=O)c1ccc(C(=O)OCCCOC(=O)c3ccc(C(=O)Nc4ccc5c(c4)C(C)(C)CCC5(C)C)cc3)cc1)C(C)(C)CCC2(C)C | 14.9 | 49.1 | 112
Cc1cc2c(cc1C(=O)c1ccc(C(=O)OCCCCOC(=O)c3ccc(C(=O)Nc4ccc5c(c4)C(C)(C)CCC5(C)C)cc3)cc1)C(C)(C)CCC2(C)C | 24.7 | 84 | 147
C=C(c1ccc(C(=O)OCCOC(=O)c2ccc(C(=O)Nc3ccc4c(c3)C(C)(C)CCC4(C)C)cc2)cc1)c1cc2c(cc1C)C(C)(C)CCC2(C)C | 30.7 | 504 | > 1000
C=C(c1ccc(C(=O)OCCCOC(=O)c2ccc(C(=O)Nc3ccc4c(c3)C(C)(C)CCC4(C)C)cc2)cc1)c1cc2c(cc1C)C(C)(C)CCC2(C)C | 19.2 | > 1000 | 212
C=C(c1ccc(C(=O)OCCCCOC(=O)c2ccc(C(=O)Nc3ccc4c(c3)C(C)(C)CCC4(C)C)cc2)cc1)c1cc2c(cc1C)C(C)(C)CCC2(C)C | 25.1 | > 1000 | 650
Cc1cc2c(cc1C(=O)c1ccc(C(=O)NCCNC(=O)c3ccc(C(=O)Nc4ccc5c(c4)C(C)(C)CCC5(C)C)cc3)cc1)C(C)(C)CCC2(C)C | 14.3 | 39.6 | 104
Cc1cc2c(cc1C(=O)c1ccc(C(=O)NCCCCCCNC(=O)c3ccc(C(=O)Nc4ccc5c(c4)C(C)(C)CCC5(C)C)cc3)cc1)C(C)(C)CCC2(C)C | 95.4 | 95.4 | > 1000
C=C(c1ccc(C(=O)NCCNC(=O)c2ccc(C(=O)Nc3ccc4c(c3)C(C)(C)CCC4(C)C)cc2)cc1)c1cc2c(cc1C)C(C)(C)CCC2(C)C | 14.8 | 73.5 | 569
C=C(c1ccc(C(=O)NCCCCCCNC(=O)c2ccc(C(=O)Nc3ccc4c(c3)C(C)(C)CCC4(C)C)cc2)cc1)c1cc2c(cc1C)C(C)(C)CCC2(C)C | 70.7 | 294 | > 1000
Cc1cc2c(cc1C(=O)c1ccc(C(=O)NCCOC(=O)c3ccc(C(=O)Nc4ccc5c(c4)C(C)(C)CCC5(C)C)cc3)cc1)C(C)(C)CCC2(C)C | 37.5 | 247 | 72.4
